In PMC3914206:

Experiments:
Format in all cases: binding
Design in all cases: KINOMEscan: ABL1(F317L)-phosphorylated / KINOMEscan: ABL1(H396P)-nonphosphorylated / KINOMEscan: ABL1(H396P)-phosphorylated / KINOMEscan: ABL1(M351T)-phosphorylated / KINOMEscan: ABL1(T315I)-phosphorylated / KINOMEscan: ABL1-nonphosphorylated / KINOMEscan: ABL1-phosphorylated / KINOMEscan: ACVR2A / KINOMEscan: ACVR2B / KINOMEscan: ADCK3 / KINOMEscan: ADCK4 / KINOMEscan: AKT1 / KINOMEscan: AKT3 / KINOMEscan: ALK / KINOMEscan: ARK5 / KINOMEscan: AURKA / KINOMEscan: AURKC / KINOMEscan: BIKE / KINOMEscan: BMPR1A / KINOMEscan: BMPR1B / KINOMEscan: BMX / KINOMEscan: BRK / KINOMEscan: BRSK1 / KINOMEscan: BRSK2 / KINOMEscan: CAMK1 / KINOMEscan: CAMK1D / KINOMEscan: CAMK1G / KINOMEscan: CAMK2A / KINOMEscan: CAMK2B / KINOMEscan: AAK1 / KINOMEscan: CAMK2D / KINOMEscan: CAMK2G / KINOMEscan: ABL1(F317I)-nonphosphorylated / KINOMEscan: ABL1(F317I)-phosphorylated / KINOMEscan: ABL1(F317L)-nonphosphorylated: unit: % Ctrl
Settings in all cases: Compound Concentration 10 µM
panel of 442 kinases [1] = molecular target: T1, panel of 442 kinases (Homo sapiens, UniProt Q8IWQ3)
T1 construct: purchased KINOMEscan
T1 sequence (Q8IWQ3 1-736): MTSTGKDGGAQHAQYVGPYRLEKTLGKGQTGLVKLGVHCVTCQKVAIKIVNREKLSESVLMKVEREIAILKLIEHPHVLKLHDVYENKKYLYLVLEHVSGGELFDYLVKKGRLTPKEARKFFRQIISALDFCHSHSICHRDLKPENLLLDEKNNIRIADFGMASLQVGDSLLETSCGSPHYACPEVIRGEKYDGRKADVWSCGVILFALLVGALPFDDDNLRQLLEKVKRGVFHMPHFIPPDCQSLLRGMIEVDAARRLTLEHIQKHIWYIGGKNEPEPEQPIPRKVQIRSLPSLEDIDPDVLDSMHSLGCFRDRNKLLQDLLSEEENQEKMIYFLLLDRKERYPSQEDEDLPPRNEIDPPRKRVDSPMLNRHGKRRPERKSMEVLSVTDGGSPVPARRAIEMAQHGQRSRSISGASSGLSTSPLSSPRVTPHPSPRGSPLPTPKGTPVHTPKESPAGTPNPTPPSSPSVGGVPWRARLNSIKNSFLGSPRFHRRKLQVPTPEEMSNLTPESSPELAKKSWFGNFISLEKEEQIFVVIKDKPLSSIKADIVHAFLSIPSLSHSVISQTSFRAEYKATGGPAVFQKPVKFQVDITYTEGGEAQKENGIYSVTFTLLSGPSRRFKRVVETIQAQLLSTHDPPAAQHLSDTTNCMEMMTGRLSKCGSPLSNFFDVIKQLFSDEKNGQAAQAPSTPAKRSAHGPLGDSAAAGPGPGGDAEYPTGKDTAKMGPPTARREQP
Text: (§1) We assessed the selectivity of members of this scaffold using the KINOMEscan methodology across a near comprehensive panel of 442 kinases [[18,27]].

panel of 442 kinases [2] = molecular target: T2, panel of 442 kinases (Homo sapiens, UniProt Q86Z02)
T2 construct: purchased KINOMEscan
T2 sequence (Q86Z02 whole entry): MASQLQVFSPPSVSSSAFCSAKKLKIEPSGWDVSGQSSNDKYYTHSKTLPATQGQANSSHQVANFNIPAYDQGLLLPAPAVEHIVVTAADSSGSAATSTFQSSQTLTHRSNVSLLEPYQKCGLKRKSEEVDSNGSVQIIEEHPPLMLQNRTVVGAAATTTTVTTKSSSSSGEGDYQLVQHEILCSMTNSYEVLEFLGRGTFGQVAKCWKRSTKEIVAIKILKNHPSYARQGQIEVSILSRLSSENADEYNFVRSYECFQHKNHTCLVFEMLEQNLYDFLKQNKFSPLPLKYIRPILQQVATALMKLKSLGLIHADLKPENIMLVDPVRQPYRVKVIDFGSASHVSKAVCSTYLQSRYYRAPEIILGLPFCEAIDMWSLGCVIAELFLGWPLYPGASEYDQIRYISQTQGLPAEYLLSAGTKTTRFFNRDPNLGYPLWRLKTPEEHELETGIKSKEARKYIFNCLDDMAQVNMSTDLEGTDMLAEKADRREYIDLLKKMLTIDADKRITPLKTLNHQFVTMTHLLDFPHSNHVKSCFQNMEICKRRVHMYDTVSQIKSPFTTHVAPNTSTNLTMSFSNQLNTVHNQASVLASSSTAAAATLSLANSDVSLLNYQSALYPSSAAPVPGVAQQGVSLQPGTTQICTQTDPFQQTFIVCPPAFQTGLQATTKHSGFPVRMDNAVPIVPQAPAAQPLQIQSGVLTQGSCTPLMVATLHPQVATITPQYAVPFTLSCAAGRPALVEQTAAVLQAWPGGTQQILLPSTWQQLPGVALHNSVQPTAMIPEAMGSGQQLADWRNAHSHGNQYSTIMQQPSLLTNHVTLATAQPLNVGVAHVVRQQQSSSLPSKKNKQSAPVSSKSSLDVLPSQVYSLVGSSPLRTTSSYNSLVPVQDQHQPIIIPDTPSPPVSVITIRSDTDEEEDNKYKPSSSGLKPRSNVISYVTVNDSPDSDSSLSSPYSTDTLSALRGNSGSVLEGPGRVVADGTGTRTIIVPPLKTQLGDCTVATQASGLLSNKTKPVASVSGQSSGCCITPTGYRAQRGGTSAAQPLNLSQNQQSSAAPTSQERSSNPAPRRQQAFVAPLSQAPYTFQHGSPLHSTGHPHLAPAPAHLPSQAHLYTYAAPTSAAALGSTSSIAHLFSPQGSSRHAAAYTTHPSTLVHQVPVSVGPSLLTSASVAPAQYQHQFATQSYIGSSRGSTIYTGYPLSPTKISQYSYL
Text: as §1

panel of 442 kinases [3] = molecular target: T3, panel of 442 kinases (Homo sapiens, UniProt P51957)
T3 construct: purchased KINOMEscan
T3 sequence (P51957 whole entry): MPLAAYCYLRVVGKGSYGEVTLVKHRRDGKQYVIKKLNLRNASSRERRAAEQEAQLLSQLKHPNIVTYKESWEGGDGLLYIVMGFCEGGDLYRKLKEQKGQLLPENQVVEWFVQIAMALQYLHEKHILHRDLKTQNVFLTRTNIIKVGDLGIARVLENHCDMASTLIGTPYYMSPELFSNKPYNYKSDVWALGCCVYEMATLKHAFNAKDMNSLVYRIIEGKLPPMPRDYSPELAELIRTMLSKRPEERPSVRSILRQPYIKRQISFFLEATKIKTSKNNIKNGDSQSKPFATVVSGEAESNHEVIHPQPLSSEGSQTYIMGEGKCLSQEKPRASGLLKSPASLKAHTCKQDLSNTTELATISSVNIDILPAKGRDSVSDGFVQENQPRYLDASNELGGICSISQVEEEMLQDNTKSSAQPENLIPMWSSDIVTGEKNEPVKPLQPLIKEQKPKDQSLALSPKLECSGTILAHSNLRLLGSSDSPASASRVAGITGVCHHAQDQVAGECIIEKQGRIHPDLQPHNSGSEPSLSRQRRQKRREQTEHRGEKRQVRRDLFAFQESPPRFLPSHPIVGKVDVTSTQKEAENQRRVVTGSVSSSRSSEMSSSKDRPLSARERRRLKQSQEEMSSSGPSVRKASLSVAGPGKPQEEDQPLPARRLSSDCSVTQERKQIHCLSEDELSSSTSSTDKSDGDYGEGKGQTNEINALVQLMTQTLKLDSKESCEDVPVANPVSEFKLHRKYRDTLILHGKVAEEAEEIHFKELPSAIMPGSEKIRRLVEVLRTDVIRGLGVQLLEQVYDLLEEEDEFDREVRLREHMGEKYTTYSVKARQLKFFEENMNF
Text: as §1

| Structure (SMILES) | KINOMEscan: BRSK2 (panel of 442 kinases [1]) | KINOMEscan: HIPK1 (panel of 442 kinases [2]) | KINOMEscan: NEK4 (panel of 442 kinases [3]) |
| --- | --- | --- | --- |
| COc1cc(C(=O)N2CCC(N3CCN(C)CC3)CC2)ccc1Nc1ncc2c(n1)N(C)c1ccccc1C(=O)N2C [15 (LRRK2-IN-1)] | 64 | 100 | 95 |
| COc1cc(C(=O)N2CCC(N3CCN(C)CC3)CC2)ccc1Nc1ncc2c(n1)N1CCc3cccc(c31)C(=O)N2C [Compound 24] | 81 | 52 | – |
| COc1cc(C(=O)N2CCC(N3CCN(C)CC3)CC2)ccc1Nc1ncc2c(n1)N(C1CCCC1)c1ccccc1C(=O)N2C [Compound 25, 11-cyclopentyl-2-((2-methoxy-4-(4-(4-methylpiperazin-1-yl)piperidine-1-carbonyl)phenyl)amino)-5-methyl-5H-benzo[e]pyrimido[5,4-b][1,4]diazepin-6(11H)-one] | 80 | 100 | 97 |
| CCOc1cc(C(=O)N2CCC(N3CCN(C)CC3)CC2)ccc1Nc1ncc2c(n1)N(C1CCCC1)c1ccccc1C(=O)N2C [Compound 26] | 92 | 100 | 89 |
